# According to paper PMC11036078, “PD‐1 inhibition with retifanlimab and/or arginase inhibition with INCB001158 in Japanese patients with solid tumors: A phase I study” (Cancer Medicine, 2024):
# Assays:
# tumor growth = test system: tumor growth; design: method as in PMID 29254508; details: preclinical; cited from earlier work
# [1] = Safety and tolerability (TEAEs, DLTs, irAEs; NCI CTCAE v5.0), phase Ib POD1UM-104; details: in vivo
# Protocol: This was a phase Ib, open‐label, multicenter study (POD1UM‐104 [NCT03910530]). The study was conducted in 2 parts. In Part 1, patients received single‐agent retifanlimab or escalating doses of single‐agent INCB001158 to confirm the RP2D of each agent. Single‐agent dosing was performed to comply with local regulations. In Part 2, patients received the combination of retifanlimab and INCB001158 at their respective RP2D determined in Part 1, to further explore safety and preliminary evidence of clinical activity. Treatment cycles in Part 1 and Part 2 were 28 days, and patients could receive treatment for up to 2 years, or until disease progression, unacceptable toxicity, death, or patient withdrawal.
# In Part 1, 6 patients received retifanlimab 500 mg every 4 weeks (Q4W), given as an i.v. infusion over 60 min; this dose was based on the RP2D determined from global studies. The starting dose of INCB001158 was 75 mg taken orally twice daily (BID). Dose escalation of INCB001158 followed a standard 3 + 3 design; if 75 mg BID was deemed to be tolerable in at least 3 patients, a 100‐mg BID dose level cohort comprising at least 3 patients would be opened.
# DLTs were assessed by the investigator according to the National Cancer Institute (NCI) Common Terminology Criteria for Adverse Events (CTCAE) v5.0 criteria (Table S1).
# The primary endpoints of the study were safety, tolerability, DLTs, and RP2D of single‐agent retifanlimab, INCB001158, and the combination. Adverse events (AEs) were graded by NCI CTCAE v5.0, and immune‐related adverse events (irAEs) were monitored as AEs of special interest. Physical examinations, monitoring of vital signs, electrocardiograms, and laboratory assessments were conducted throughout the study.
# Safety and efficacy analyses were conducted in the full analysis set, which comprised all enrolled patients who received at least 1 dose of the study drug.
# Safety data were summarized using descriptive statistics. PK parameters were summarized by study part, treatment regimen, cohort, dose levels, and/or visit. ORR and DCR were reported with their exact 95% confidence intervals (CIs); DOR was based on the Kaplan–Meier estimate of the distribution function, and the estimated median along with 95% CI was reported. Statistical analyses were performed using SAS® software v9.4 or later (SAS Institute Inc., Cary, NC, USA).
structure (smiles),measurement,setting,value
C[C@H](N)C(=O)N1C[C@H](CCCB(O)O)[C@](N)(C(=O)O)C1 [INCB001158],Antitumor activity in mouse models,tumor growth,demonstrated antitumor activity
same,Tumor growth when combined with ICB,tumor growth,synergistically inhibited tumor growth
same,Serious TEAEs (terms),[1]; human,grade 2 inguinal hernia (n = 1)
same,TEAE: ALT increased,[1]; human,0 n (%)
same,TEAE: AST increased,[1]; human,0 n (%)
same,TEAE: Amylase increased,[1]; human,0 n (%)
same,TEAE: Anemia,[1]; human,1 (16.7) n (%)
same,TEAE: Blood creatinine increased,[1]; human,0 n (%)
same,TEAE: Diarrhea,[1]; human,1 (16.7) n (%)
same,TEAE: Nausea,[1]; human,0 n (%)
same,TEAE: Pruritus,[1]; human,0 n (%)
same,TEAE: Pyrexia,[1]; human,0 n (%)
same,TEAE: Rash,[1]; human,0 n (%)
same,TRAEs reported (terms),[1]; human,diarrhea (n = 1) and anemia and hyperbilirubinemia (n = 1)
same,Treatment discontinuation because of a TEAE,[1]; human,0 n (%)
same,Grade 3 AEs reported but not occurring during the treatment window,[1],anemia
